In patent US20090318468A1, “PYRAZOLE COMPOUNDS 436” (AstraZeneca AB, priority 2008, published 2009):

Target: T1, human cytochrome P450 (CYP) 2C19 (Homo sapiens, UniProt P33261)
T1 construct: made in house; host or cells: yeast (microsomal fraction)
Test: Cytochrome P450 Inhibition Assay, CYP 2C19
Assay type: in vitro ADME
Settings: expected IC50 range of known inhibitor (positive control); read-out: IC50 range (μM), CYP 2C19
Protocol: Cytochrome P450 Inhibition Assay
The inhibitory potential (IC50) of test compounds against 5 human cytochrome P450 (CYP) isoforms (1A2, 2C9, 2C19, 3A4 and 2D6) was assessed using an automated fluorescent end point in vitro assay modified from Crespi (Crespi and Stresser, J Pharmacol Toxicol Methods 2000, 44: 325-331). Microsomal subcellular fractions prepared from Yeast cell lines expressing each human CYP isoform were used as an enzyme source in this assay. The activity of the 5 major human CYPs was determined from the biotransformation of a number of coumarin substrates to fluorescent metabolites, in the presence of NADPH. […] Stock solutions of each CYP, with its respective substrate, were prepared in phosphate buffer pH 7.4 (see Table 1) and 178 μl was added to the well of a black solid, flat bottom, 300 μl 96 well microtitre plate (Corning Costar). […] After pre-incubating at 37° C. for 5 min the reactions were started with addition of NADPH (20 μl, concentration shown in Table 1). The final solvent content in each incubation was <=2% (1% from the test compound and a maximum of 1% from the substrate). The appropriate solvent controls and substrate blanks were included in each experiment to assess control activity and identify any inherent fluorescence due to the test compounds. In addition, known inhibitors of each CYP were included as positive controls (see Table 3 for inhibitor concentrations and expected IC50 ranges). The reactions were stopped at defined timepoints (see Table 1) by quenching with 100 μl of solvent (acetonitrile:0.5M Tris buffer 80:20 v/v). The plates were read on a fluorimeter (Spectrafluor Plus) at the appropriate excitation and emission wavelengths (listed in Table 2) and the percent activity, corrected for control, was plotted against the test compound concentration.

T1 sequence (P33261 whole entry): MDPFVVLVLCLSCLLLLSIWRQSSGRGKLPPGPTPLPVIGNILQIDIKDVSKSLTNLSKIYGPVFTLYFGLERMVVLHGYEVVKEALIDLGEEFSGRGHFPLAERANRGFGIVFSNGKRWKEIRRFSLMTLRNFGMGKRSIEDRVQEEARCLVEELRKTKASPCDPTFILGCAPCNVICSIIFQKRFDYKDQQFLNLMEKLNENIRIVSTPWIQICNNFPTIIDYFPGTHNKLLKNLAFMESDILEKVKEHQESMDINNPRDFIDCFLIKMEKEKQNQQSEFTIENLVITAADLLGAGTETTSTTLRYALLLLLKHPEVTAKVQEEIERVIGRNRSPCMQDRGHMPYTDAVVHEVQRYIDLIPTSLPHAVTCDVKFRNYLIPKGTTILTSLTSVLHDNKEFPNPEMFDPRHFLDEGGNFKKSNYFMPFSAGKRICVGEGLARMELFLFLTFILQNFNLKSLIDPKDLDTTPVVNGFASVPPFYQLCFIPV

IC50: 1.5 to 4.6 µM
Compound: COc1ccc2[nH]c([S+]([O-])Cc3ncc(C)c(OC)c3C)nc2c1 (stereo not shown) [Omeprazole, reference compound]
